Test results: patent publication US4735793A, “Carboxy, carboalkoxy and carbamile substituted isonitrile radionuclide complexes” (Massachusetts Institute of Technology, priority 1985, dated 1988)

How the values were obtained:
[1] = rabbit, in vivo, iv
Method: (§2) Rabbits were anesthetized with Ketamine and Nembutal™ and positioned beneath a gamma camera to allow continuous collection of data including a chest and abdomen view. 1 mCi of the test agent as specified below was injected via an ear vein and data collected continuously at 60 second intervals for 60 minutes. Curves were generated by drawing regions of interest over selected tissues and normalizing to counts per minute per pixel.
The time of maximum activity in the liver post injection is "^t max", while "t1/2" is the apparent half life of the clearance curve from ^t max. The latter data is an estimate based on data collected to 60 minutes after administration. This assumes a simple exponential curve with time, although more extensive studies might indicate more components are actually present.

[2] = Scintigraphic images in animal and human tests; assay type: in vivo; details: for usefulness for imaging the heart: in vivo
Method: Scintigrapic Imaging Procedure in Animals
(§1) Two rabbits were anesthetized with sodium pentobarbital and injected via an ear vein with 3-8 mCi of ^99m Tc-isonitrile complex. One rabbit was imaged using a gamma camera equipped with a pinhole collimator positioned directly over the chest. Three minute static images were acquired at 5, 10, […], 40, 50 and 60 minutes post injection. A second rabbit was used to investigate the relative whole body distribution of activity for 60 minutes post-injection. Immediately post-injection, 300 thousand count images were acquired in the following sequence of projections: chest, anterior heart, whole body, anterior heart, left lateral whole body, anterior heart, lateral heart, anterior heart.
Swine were sedated with intramuscular injections of Ketamine and acepromazine, and anesthetized with sodium pentobarbital. The animals were positioned for anterior image acquisition over the chest under a low energy, high resolution collimator and injected with 10-12 mCi ^99m Tc-isonitrile complex via a leg vein. The liver was covered with a lead shield, and three minute images were acquired at 5, 10, 20, 30, 40, 50 and 60 minutes post-injection.
After anesthetization with sodium pentobarbital, dogs were injected with 25 mCi of ^99m Tc and positioned for anterior chest image acquisition using a pinhole collimator. Again, three minute images were obtained at 5, 10, 20, 30, 40, 50 and 60 minutes post-injection.

[3] = rabbit, in vivo
Method: as §2
The complexes were prepared, injected and imaged as described above.

[4] = Scintigraphic imaging of the heart in rabbits; assay type: in vivo, rabbit
Method: as §1
FIG. 6(a) is a scintigraphic image of a rabbit injected with a complex of ^99m Tc-carboethoxyisopropylisonitrile at 5 minutes after injection, while FIG. 6(b) is a scintigraphic image of the same rabbit at 15 minutes after injection. FIG. 7(a) is a scintigraphic image of a rabbit injected with a complex of ^99m Tc-2-carboethoxyethylisonitrile at 1, 10, 15 and 20 minutes post injection. FIG. 7 (b) is a scintigraphic image of a rabbit injected with the above complex at 31 minutes post-injection. The heart is at (A), the gall bladder at (B) and the site of injection at (C). The interpretation of these images is known to the person of ordinary skill in this field.

t1/2 (apparent half life of the liver clearance curve from tmax) [1] [min]	tmax (time of maximum activity in the liver post injection) [1] [min]	lung clearance [3]	Compound	usefulness for imaging the heart [2]	resolution of the apex of the heart ([4]; by 20 minutes after injection, after liver clearance)	resolution of the myocardium ([4]; five minutes after injection)	visualization of the apex of the heart ([4]; initially, background noise from liver uptake)	image quality ([2]; animal and human tests)
98	5		[C-]#[N+]C(C)C [CNC(CH3)2 R, R = --H, isopropylisonitrile, reference compound]					
88	14		[C-]#[N+]C [CNCH2 R, R = --H, methyl isonitrile, reference compound]					
270	2		[C-]#[N+]CC [CNCH(R)CH3, R = --H, ethyl isonitrile, reference compound]					
37	1		Hexakis carbomethoxymethylisonitrile Technetium Cation [CNCH2 R, R = --COOCH3]					
35	3	rapid lung clearance	^99m Tc-Hexakis-1-carbomethoxyisopropylisonitrile Technetium (I) [CNC(CH3)2 R, R = --COOCH3]	particularly useful for imaging the heart	excellent resolution of the apex	very good to excellent resolution of the myocardium	initially prevents clear visualization of the apex of the heart	
17	2		^99m Tc-Hexakis-2-carboethoxyethylisonitrile Technetium (I) [CNCH2 CH2 R, R = --COOC2 H5]	particularly useful for imaging the heart				excellent images in both animal and human tests

Compound	t1/2 (apparent half life of the liver clearance curve from tmax) [1] [min]	tmax (time of maximum activity in the liver post injection) [1] [min]	lung clearance [3]	usefulness for imaging the heart [2]	resolution of the apex of the heart ([4]; by 20 minutes after injection, after liver clearance)	resolution of the myocardium ([4]; five minutes after injection)	visualization of the apex of the heart ([4]; initially, background noise from liver uptake)	image quality ([2]; animal and human tests)
^99m TC-hexakis carbo-t-butoxymethylisonitrile technetium [CNCH2 R, R = --COO^t C4 H9]	25	5						
